According to ChEMBL document CHEMBL5523724, “Rational Molecular Editing: A New Paradigm in Drug Discovery” (J Med Chem, 2024):

Key:
[1] = target: T1, 3-hydroxy-3-methylglutaryl-coenzyme A reductase (Homo sapiens, UniProt P04035); experiment: Inhibition of HMG-CoA Reductase (unknown origin)
T1 sequence (P04035 whole entry): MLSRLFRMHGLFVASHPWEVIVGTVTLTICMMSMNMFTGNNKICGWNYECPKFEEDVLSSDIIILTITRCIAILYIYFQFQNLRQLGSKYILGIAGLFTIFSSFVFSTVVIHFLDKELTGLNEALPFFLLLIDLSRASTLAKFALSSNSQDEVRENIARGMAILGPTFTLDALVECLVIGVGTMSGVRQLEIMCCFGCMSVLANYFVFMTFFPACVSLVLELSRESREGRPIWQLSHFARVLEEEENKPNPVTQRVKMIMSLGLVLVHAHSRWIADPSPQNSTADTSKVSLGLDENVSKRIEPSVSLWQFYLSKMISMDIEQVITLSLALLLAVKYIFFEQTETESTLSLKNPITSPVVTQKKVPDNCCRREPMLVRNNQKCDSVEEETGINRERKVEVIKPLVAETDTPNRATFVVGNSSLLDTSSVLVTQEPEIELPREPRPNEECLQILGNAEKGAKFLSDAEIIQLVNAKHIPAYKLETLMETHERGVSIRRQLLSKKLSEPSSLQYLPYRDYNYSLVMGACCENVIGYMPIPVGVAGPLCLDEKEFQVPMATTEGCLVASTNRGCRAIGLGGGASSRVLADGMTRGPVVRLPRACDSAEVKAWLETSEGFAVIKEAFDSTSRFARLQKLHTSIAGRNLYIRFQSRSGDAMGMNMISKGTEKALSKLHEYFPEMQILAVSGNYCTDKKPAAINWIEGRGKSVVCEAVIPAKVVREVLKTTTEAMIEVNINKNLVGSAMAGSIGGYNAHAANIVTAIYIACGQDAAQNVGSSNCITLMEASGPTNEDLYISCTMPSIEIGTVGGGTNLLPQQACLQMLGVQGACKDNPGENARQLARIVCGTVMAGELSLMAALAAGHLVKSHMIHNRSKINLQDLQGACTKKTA

Ramos = experiment: Antitumor activity against human Ramos cells; format: functional, cell-based

IC50 [1] [nM]	IC50 (Ramos) [nM]	SMILES
230		CC(C)c1ccc(-c2ccc(F)cc2)n1CC[C@@H]1C[C@@H](O)CC(=O)O1
	38000	Cc1cccc(P(=O)(CNCc2ccccc2)c2cccc(C)c2)c1
	4200	[2H]C([2H])(NCc1ccccc1)P(=O)(c1cccc(C)c1)c1cccc(C)c1
7		CC(C)c1c(C(=O)Nc2ccccc2)c(-c2ccccc2)c(-c2ccc(F)cc2)n1CC[C@@H]1C[C@@H](O)CC(=O)O1 [ATORVASTATIN LACTONE]
